Columns and labels:
human STING (WT) = human STING (WT) (Homo sapiens (Human), UniProt Q86WV6, H232R); test: Surface plasmon resonance (SPR), STING (WT); format: binding; details: biotinylated STING on streptavidin chip, 8° C.
Procedure: Biophysical experiments were performed with three different recombinant human STING protein variants designated according to allelic nomenclature of Yi et al., (2013). Codon optimized DNA sequences (for expression in Escherichia coli) encoding amino acid residues 149 to 345 (Swiss Prot Q86WV6) of human STING (WT), human STING (HAQ) and human STING (R232H) were synthesised by GenScript USA Inc (Piscataway, New Jersey, USA). These were ligated into a modified pET43a E. coli expression vector designed to encode N-terminal His tag followed by tobacco etch virus protease (TEV) cleavage site and a STING gene sequence. The resulting protein sequences for the three allelic variants are listed below:
Binding interactions of ligands with STING proteins were quantified using Surface Plasmon Resonance (SPR) with a minimally biotinylated STING protein immobilized on a streptavidin chip surface. […] Minimal biotinylation of purified huSTING proteins was performed using a previously described methodology (Chhabra 2012). Briefly, approximately 20 nmol of recombinant STING protein in 1×TBS buffer (25 mM Tris-HCl, pH 7.5, 150 mM NaCl, 5 mM DTT) was mixed with of EZ-Link™ Sulfo-NHS-LC-LC-Biotin (Thermofisher Scientific, cat #21338) at a molar ratio of 1 to 0.6 and incubated on ice for 2 hours. To remove any unreacted biotin reagent, protein/biotin mixture was passed through a Superdex 75 (10/300 GL) column equilibrated with 10 mM HEPES, pH7.4, 150 mM NaCl, 5 mM DTT, 5%[v/v] glycerol. A protein peak containing biotinylated huSTING protein was collected and stored in aliquots at −80° C.
Streptavidin was simultaneously immobilized in all four channels of a CM5 sensor chip docked in a Biacore instrument (either Biacore S200 or Biacore T200, GE Healthcare) as described previously (Zender 2013). Minimally biotinylated STING protein was captured onto a streptavidin coated chip surface at 8° C. in SPR binding buffer (50 mM HEPES, pH 7.4, 150 mM NaCl, 2%[v/v] DMSO) by gradually injecting in a single channel at a constant flow-rate of 2 μL/min until desired capture level was achieved, typically 3000 to 7000 RU (1 RU=1 pg/mm^2).
All binding experiments were performed at 8° C. in SPR binding buffer. To determine binding affinity, compound interaction with immobilized STING protein was analysed using dose-response experiments. Fresh 10 mM DMSO solutions of compound were diluted directly into SPR binding buffer typically to a concentration of 50 μM and then further diluted 2-fold or 3-fold aiming for either a 5- or 7-point concentration series range. Each ligand concentration series was injected at a constant flow rate of 60 μL/min with a 90 second association and a 180 second dissociation time. These were modified for compounds with longer residence times, so that curves could reach steady-state, or so that compound would be fully dissociated before the subsequent injection.
Scrubber 2 (www.biologic.com.au) was utilized for data processing, where signals were referenced against the blank surface (streptavidin+D-biotin) and further corrected for DMSO refractive index change and then “double-referenced” using a buffer-blank injection (Papalia 2006). Responses were fitted to either a 1:1 steady-state affinity model or a 1:1 kinetic model (that included a mass-transport component), available within Scrubber.

[1] = target: WT human STING isoform (THP-1-Dual KI-hSTING-R232 cells) (Homo sapiens (Human), UniProt Q86WV6, H232R); test: THP-1-Dual KI-hSTING-R232 reporter cell line assay; format: cell-based; details: 24 h incubation, QUANTI-Luc luminescence
Procedure: THP-1 STING Lucia ISG cells (InvivoGen #thpI-isg) were cultured in RPMI-1640 containing 2 mM L-glutamine, 25 mM HEPES, 100 μg/mL Normocin (InvivoGen) and 10% heat-inactivated FBS. Cells were seeded at a density of 7×10^5 cells/mL, maintained at 37° C./5% CO2, and passaged every 3-4 days. Selection pressure was maintained by the addition of 100 μg/mL Zeocin every second passage.
Assay conditions: cells were harvested and resuspended at a concentration of 5×10^5 cells/mL in fresh growth media. Of this cell preparation 20 μL per well was dispensed into 384 well cell culture plates (Greiner, #781098X) and incubated at 37° C./5% CO2 for 2 hours. Concentration Response Curves (commonly 11 doses) were prepared by 2.5 fold serial dilution starting from 10 mM compound stock solution in DMSO. Compound dilutions were transferred into the cell culture plates using a pintool (0.1 μL transfer), control wells were matched for DMSO. Positive control wells received ML RR—S2 CDA (Med Chem Express HY12885B) in 5 μL of media to a final concentration of 40 μM. All other wells received additional 5 μL of media only to equalise volume. The plates were incubated for 24 h at 37° C./5% CO2.
For the detection step, QUANTI-Luc (InvivoGen #rep-qlc1) was prepared according to manufacturer's instruction and 10 μL were added per well to the culture plates. Plates were shaken for ten seconds on an orbital shaker and left in the dark at room temperature for two minutes, before luminescence was read on a Perkin Elmer Envision plate reader.
Data analysis: Luminescence raw data was normalised % activity relative to the signal of the positive control wells and negative control wells which were not treated with compound. The following formula was used to calculate normalised % activity from raw signals: % activity=(sample−negative)/(positive−negative)
The THP-1 STING Lucia ISG cell EC50 provides an assessment of activity at the human HAQ isoform of STING. For assessing compound activity against the WT human STING isoform, an equivalent method was conducted where the cells used were THP-1-Dual KI-hSTING-R232 (InvivoGen #thpd-r232).

Sequence of WT human STING isoform (THP-1-Dual KI-hSTING-R232 cells) (Q86WV6 whole entry H232R, canonical isoform): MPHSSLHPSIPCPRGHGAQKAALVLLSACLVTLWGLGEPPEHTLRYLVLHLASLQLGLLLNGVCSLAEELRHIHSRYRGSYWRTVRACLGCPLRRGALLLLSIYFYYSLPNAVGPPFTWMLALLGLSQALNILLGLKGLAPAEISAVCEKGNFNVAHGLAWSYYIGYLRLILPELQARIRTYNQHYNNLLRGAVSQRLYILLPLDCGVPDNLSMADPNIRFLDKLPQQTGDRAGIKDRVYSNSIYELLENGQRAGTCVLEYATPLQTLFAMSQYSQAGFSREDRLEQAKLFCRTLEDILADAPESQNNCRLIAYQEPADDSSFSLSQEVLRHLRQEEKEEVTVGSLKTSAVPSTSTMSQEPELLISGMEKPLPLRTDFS
Sequence of human STING (WT) (Q86WV6 other isoform, or with tags, fused parts or gaps, stated change not applied): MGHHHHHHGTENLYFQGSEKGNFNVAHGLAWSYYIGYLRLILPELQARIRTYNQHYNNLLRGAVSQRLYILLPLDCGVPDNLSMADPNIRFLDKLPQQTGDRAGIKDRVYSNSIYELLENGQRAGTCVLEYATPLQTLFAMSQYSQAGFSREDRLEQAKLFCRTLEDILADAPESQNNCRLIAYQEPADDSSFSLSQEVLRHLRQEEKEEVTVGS

Row | Structure (SMILES) | Kd (human STING (WT)) [µM] | EC50 [1] [µM]
1 | COc1c(C(N)=O)cc(F)c2c1nc(-c1c(F)cc(F)cc1C(=O)O)n2CCn1c(-c2c(F)cc(F)cc2C(=O)O)nc2c(OC)c(C(N)=O)cc(F)c21 [Example 18, 2,2′-(Ethane-1,2-diylbis(5-carbamoyl-7-fluoro-4-methoxy-1H-benzo[d]imidazole-1,2-diyl))bis(3,5-difluorobenzoic acid)] | 2.01 | 0.566
2 | COc1c(C(N)=O)cc(F)c2c1nc(-c1ccc(Cl)cc1C(=O)O)n2CCn1c(-c2ccc(Cl)cc2C(=O)O)nc2c(OC)c(C(N)=O)cc(F)c21 [Example 20, 6,6′-(Ethane-1,2-diylbis(5-carbamoyl-7-fluoro-4-methoxy-1H-benzo[d]imidazole-1,2-diyl))bis(3-chlorobenzoic acid)] | 96 | 2.78
3 | COC(=O)c1c(Br)cccc1-c1nc2c(OC)c(C(N)=O)ccc2n1CCn1c(-c2cccc(Br)c2C(=O)OC)nc2c(OC)c(C(N)=O)ccc21 [Example 21, Dimethyl 6,6′-(ethane-1,2-diylbis(5-carbamoyl-4-methoxy-1H-benzo[d]imidazole-1,2-diyl))bis(2-bromobenzoate)] | 5.38 | 1.63
4 | COc1c(C(N)=O)ccc2c1nc(-c1ccc(Cl)cc1-c1cn[nH]n1)n2CCn1c(-c2ccc(Cl)cc2-c2cn[nH]n2)nc2c(OC)c(C(N)=O)ccc21 [Example 24, 1,1′-(Ethane-1,2-diyl)bis(2-(4-chloro-2-(2H-1,2,3-triazol-4-yl)phenyl)-4-methoxy-1H-benzo[d]imidazole-5-carboxamide)] | 102 | 4.19
5 | COc1c(C(N)=O)ccc2c1nc(-c1ccc(C)cc1C(=O)O)n2CCn1c(-c2ccc(C)cc2C(=O)O)nc2c(OC)c(C(N)=O)ccc21 [Example 25, 6,6′-(Ethane-1,2-diylbis(5-carbamoyl-4-methoxy-1H-benzo[d]imidazole-1,2-diyl))bis(3-methylbenzoic acid)] | 250 | 3.2
6 | COc1c(C(N)=O)ccc2c1nc(-c1cc(C)ccc1C(=O)O)n2CCn1c(-c2cc(C)ccc2C(=O)O)nc2c(OC)c(C(N)=O)ccc21 [Example 26, 2,2′-(Ethane-1,2-diylbis(5-carbamoyl-4-methoxy-1H-benzo[d]imidazole-1,2-diyl))bis(4-methylbenzoic acid)] | > 40 | 3.22
7 | COc1c(C(N)=O)ccc2c1nc(-c1cnccc1C(=O)O)n2CCn1c(-c2cnccc2C(=O)O)nc2c(OC)c(C(N)=O)ccc21 [Example 30, 3,3′-(Ethane-1,2-diylbis(5-carbamoyl-4-methoxy-1H-benzo[d]imidazole-1,2-diyl))diisonicotinic acid] | 126 | 28.9
8 | COc1c(C(N)=O)ccc2c1nc(-c1ncc(Cl)cc1C(=O)O)n2CCn1c(-c2ncc(Cl)cc2C(=O)O)nc2c(OC)c(C(N)=O)ccc21 [Example 31, 2,2′-(Ethane-1,2-diylbis(5-carbamoyl-4-methoxy-1H-benzo[d]imidazole-1,2-diyl))bis(5-chloronicotinic acid)] | 88 | > 40
9 | COc1c(C(N)=O)ccc2c1nc(-c1ccc(Cl)cc1-c1noc(=O)[nH]1)n2CCn1c(-c2ccc(Cl)cc2-c2noc(=O)[nH]2)nc2c(OC)c(C(N)=O)ccc21 [Example 32, 1,1′-(Ethane-1,2-diyl)bis(2-(4-chloro-2-(5-oxo-4,5-dihydro-1,2,4-oxadiazol-3-yl)phenyl)-4-methoxy-1H-benzo[d]imidazole-5-carboxamide)] | > 80 | 29.7
10 | CCc1ccc(-c2nc3c(OC)c(C(N)=O)ccc3n2CCn2c(-c3ccc(CC)cc3C(=O)O)nc3c(OC)c(C(N)=O)ccc32)c(C(=O)O)c1 [Example 33, 6,6′-(Ethane-1,2-diylbis(5-carbamoyl-4-methoxy-1H-benzo[d]imidazole-1,2-diyl))bis(3-ethylbenzoic acid)] | 107 | > 40
11 | COc1c(C(N)=O)ccc2c1nc(-c1ccc(Cl)cc1C(=O)O)n2C/C=C/Cn1c(-c2ccc(Cl)cc2C(=O)O)nc2c(OC)c(C(N)=O)ccc21 [Example 34, (E)-6,6′-(But-2-ene-1,4-diylbis(5-carbamoyl-4-methoxy-1H-benzo[d]imidazole-1,2-diyl))bis(3-chlorobenzoic acid)] | 74 | > 40
12 | COc1c(C(N)=O)ccc2c1nc(-c1ccc(Cl)cc1C(=O)O)n2CCCn1c(-c2ccc(Cl)cc2C(=O)O)nc2c(OC)c(C(N)=O)ccc21 [Example 35, 6,6′-(Propane-1,3-diylbis(5-carbamoyl-4-methoxy-1H-benzo[d]imidazole-1,2-diyl))bis(3-chlorobenzoic acid)] | > 100 | > 40
13 | COc1c(C(N)=O)ccc2c1nc(-c1cccc(Br)c1C(=O)O)n2CCn1c(-c2cccc(Br)c2C(=O)O)nc2c(OC)c(C(N)=O)ccc21 [Example 36, 6,6′-(Ethane-1,2-diylbis(5-carbamoyl-4-methoxy-1H-benzo[d]imidazole-1,2-diyl))bis(2-bromobenzoic acid)] | 58 | > 40
14 | COc1c(C(N)=O)ccc2c1nc(-c1ccc(C(F)(F)F)cc1C(=O)O)n2CCn1c(-c2ccc(C(F)(F)F)cc2C(=O)O)nc2c(OC)c(C(N)=O)ccc21 [Example 38, 6,6′-(Ethane-1,2-diylbis(5-carbamoyl-4-methoxy-1H-benzo[d]imidazole-1,2-diyl))bis(3-(trifluoromethyl)benzoic acid)] | > 100 | > 40
15 | COc1c(C(N)=O)ccc2c1nc(-c1cccc(Cl)c1-c1nn[nH]n1)n2CCn1c(-c2cccc(Cl)c2-c2nn[nH]n2)nc2c(OC)c(C(N)=O)ccc21 [Example 40, 1,1′-(Ethane-1,2-diyl)bis(2-(3-chloro-2-(2H-tetrazol-5-yl)phenyl)-4-methoxy-1H-benzo[d]imidazole-5-carboxamide)] | 180 | > 40
16 | COc1ccc(-c2nc3c(OC)c(C(N)=O)ccc3n2CCn2c(-c3ccc(OC)cc3C(=O)O)nc3c(OC)c(C(N)=O)ccc32)c(C(=O)O)c1 [Example 41, 6,6′-(Ethane-1,2-diylbis(5-carbamoyl-4-methoxy-1H-benzo[d]imidazole-1,2-diyl))bis(3-methoxybenzoic acid)] | 200 | > 40
17 | COc1c(C(N)=O)ccc2c1nc(-c1cc(Cl)ccc1-c1nn[nH]n1)n2CCn1c(-c2cc(Cl)ccc2-c2nn[nH]n2)nc2c(OC)c(C(N)=O)ccc21 [Example 42, 1,1′-(Ethane-1,2-diyl)bis(2-(5-chloro-2-(2H-tetrazol-5-yl)phenyl)-4-methoxy-1H-benzo[d]imidazole-5-carboxamide)] | 139 | 4.39

Reference: patent US12415785B2, “Compound modulators of sting” (CTXT PTY LTD, priority 2019, dated 2025)
